Assay results from patent US8609690B2, “Aryl- and heteroarylcarbonyl derivatives of substituted nortropanes, medicaments containing such compounds and their use” (Boehringer Ingelheim International GmbH, priority 2008, dated 2013).

Each compound was assayed against T1, 11β-HSD 1 (Homo sapiens, UniProt P28845) (assay: In vitro inhibition of 11β-HSD 1, HTRF detection of cortisol generated by human liver microsomes). Settings: 1 μM test compound, 100% indicates no inhibition, zero or below zero indicates complete inhibition (relative to carbenoxolone).
T1 construct: detecting cortisol generated from cortisterone by human liver microsomes; from tissue; host or cells: human liver microsomes
T1 sequence (P28845 whole entry): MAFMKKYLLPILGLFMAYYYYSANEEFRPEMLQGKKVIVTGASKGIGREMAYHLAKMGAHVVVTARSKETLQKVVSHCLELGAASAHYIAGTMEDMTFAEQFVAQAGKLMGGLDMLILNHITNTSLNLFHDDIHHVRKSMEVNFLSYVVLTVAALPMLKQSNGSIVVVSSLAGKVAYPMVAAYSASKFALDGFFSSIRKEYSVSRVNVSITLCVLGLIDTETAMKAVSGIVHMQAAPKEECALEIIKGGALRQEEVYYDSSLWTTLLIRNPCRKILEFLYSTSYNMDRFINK
Format: biochemical
Procedure, shortened: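 Human liver microsomes with test compound were incubated 1 h at 37 °C in Tris buffer, pH 6.0, with 200 μM NADPH and 80 nM cortisone. Cortisol formed was detected by competitive HTRF immunoassay (665/615 nm ratio) and calibrated against a cortisol standard curve. Values are activities at 1 μM compound relative to carbenoxolone, where 100% indicates no inhibition.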

Compared with `COc1cccc([C@H]2C[C@H]3CC[C@@H](C2)N3C(=O)c2ccc3c(c2)OCCO3)c1` [Example 139, endo-(2,3-Dihydro-benzo[1,4]dioxin-6-yl)-[3-(3-methoxy-phenyl)-8-aza-bicyclo[3.2.1]oct-8-yl]-methanone], `NC(=O)c1cccc(C2CC3CCC(C2)N3C(=O)c2ccc3c(c2)OCCO3)c1` (stereo not drawn) [Example 149, 3-[8-(2,3-Dihydro-benzo[1,4]dioxine-6-carbonyl)-8-aza-bicyclo[3.2.1]oct-3-yl]-benzamide] is higher in “Inhibitory activity on 11β-HSD 1, % CTL” value: 21 % CTL for the first, 30 % CTL for the second.

First: Cc1cc(C(F)(F)F)n2nc(C(=O)N3[C@@H]4CC[C@H]3C[C@@H](c3ccc(F)cc3)C4)cc2n1 [Example 42, endo-[3-(4-Fluoro-phenyl)-8-aza-bicyclo[3.2.1]oct-8-yl]-(5-methyl-7-trifluoromethyl-pyrazolo[1,5-a]pyrimidin-2-yl)-methanone]
Second: Cc1nc2ccc(C(=O)N3[C@@H]4CC[C@H]3C[C@@H](c3ccc(F)cc3)C4)cc2[nH]1 [Example 74, endo-[3-(4-Fluoro-phenyl)-8-aza-bicyclo[3.2.1]oct-8-yl]-(2-methyl-3H-benzoimidazol-5-yl)-methanone]
The “Inhibitory activity on 11β-HSD 1, % CTL” value of the first is higher: 93 % CTL for the first, 69 % CTL for the second.

Going from `O=C(c1ccc2scnc2c1)N1[C@@H]2CC[C@H]1C[C@@H](c1ccc(F)cc1)C2` [Example 93, endo-Benzothiazol-5-yl-[3-(4-fluoro-phenyl)-8-aza-bicyclo[3.2.1]oct-8-yl]-methanone] to `O=C(c1ccc2ncsc2c1)N1[C@@H]2CC[C@H]1C[C@@H](c1ccc(F)cc1)C2` [Example 94, endo-Benzothiazol-6-yl-[3-(4-fluoro-phenyl)-8-aza-bicyclo[3.2.1]oct-8-yl]-methanone], the “Inhibitory activity on 11β-HSD 1, % CTL” value falls from 38 % CTL to 12 % CTL.

Going from `O=C(c1nsc(Cl)c1Cl)N1[C@@H]2CC[C@H]1C[C@@H](c1ccc(F)cc1)C2` [Example 30, endo-(4,5-Dichloro-isothiazol-3-yl)-[3-(4-fluoro-phenyl)-8-aza-bicyclo[3.2.1]oct-8-yl]-methanone] to `O=C(c1cccs1)N1[C@@H]2CC[C@H]1C[C@@H](c1ccc(F)cc1)C2` [Example 7, endo-[3-(4-Fluoro-phenyl)-8-aza-bicyclo[3.2.1]oct-8-yl]-thiophen-2-yl-methanone], the “Inhibitory activity on 11β-HSD 1, % CTL” value falls from 88 % CTL to 68 % CTL.

First: O=C(c1ccc2c(c1)OCCO2)N1[C@@H]2CC[C@H]1C[C@@H](c1c(F)cccc1F)C2 [Example 161, endo-[3-(2,6-Difluoro-phenyl)-8-aza-bicyclo[3.2.1]oct-8-yl]-(2,3-dihydro-benzo[1,4]dioxin-6-yl)-methanone]
Second: O=C(c1ccc2c(c1)OCCO2)N1[C@@H]2CC[C@H]1C[C@@H](c1ccc(F)cc1)C2 [Example 3, endo-(2,3-Dihydro-benzo[1,4]dioxin-6-yl)-[3-(4-fluoro-phenyl)-8-aza-bicyclo[3.2.1]oct-8-yl]-methanone]
The “Inhibitory activity on 11β-HSD 1, % CTL” value of the first is higher: −30 % CTL for the first, −32 % CTL for the second.

Compared with `O=C(c1nccc2ccccc12)N1[C@@H]2CC[C@H]1C[C@@H](c1ccc(F)cc1)C2` [Example 33, endo-[3-(4-Fluoro-phenyl)-8-aza-bicyclo[3.2.1]oct-8-yl]-isoquinolin-1-yl-methanone], `O=C(c1cccc2[nH]cnc12)N1[C@@H]2CC[C@H]1C[C@@H](c1ccc(F)cc1)C2` [Example 73, endo-(1H-Benzoimidazol-4-yl)-[3-(4-fluoro-phenyl)-8-aza-bicyclo[3.2.1]oct-8-yl]-methanone] is higher in “Inhibitory activity on 11β-HSD 1, % CTL” value: 88 % CTL for the first, 90 % CTL for the second.

Going from `Cc1[nH]c2cc(C(=O)N3[C@@H]4CC[C@H]3C[C@@H](c3ccc(F)cc3)C4)ccc2c1C` [Example 52, endo-(2,3-Dimethyl-1H-indol-6-yl)-[3-(4-fluoro-phenyl)-8-aza-bicyclo[3.2.1]oct-8-yl]-methanone] to `Cc1ccc(C(=O)N2[C@@H]3CC[C@H]2C[C@@H](c2ccc(F)cc2)C3)cc1C` [Example 107, endo-(3,4-Dimethyl-phenyl)-[3-(4-fluoro-phenyl)-8-aza-bicyclo[3.2.1]oct-8-yl]-methanone], the “Inhibitory activity on 11β-HSD 1, % CTL” value falls from 82 % CTL to −38 % CTL.

First: NCc1ccc(C2CC3CCC(C2)N3C(=O)c2ccc3c(c2)OCCO3)cc1 (stereo not drawn) [Example 146, [3-(4-Aminomethyl-phenyl)-8-aza-bicyclo[3.2.1]oct-8-yl]-(2,3-dihydro-benzo[1,4]dioxin-6-yl)-methanone]
Second: O=C(O)c1ccc([C@H]2C[C@H]3CC[C@@H](C2)N3C(=O)c2ccc3c(c2)OCCO3)cc1 [Example 158, endo-4-[8-(2,3-Dihydro-enzo[1,4]dioxine-6-carbonyl)-8-aza-bicyclo[3.2.1]oct-3-yl]-benzoic acid]
The “Inhibitory activity on 11β-HSD 1, % CTL” value of the first is higher: 96 % CTL for the first, 86 % CTL for the second.

Compared with `O=C(c1ccc2c(c1)OCCO2)N1[C@@H]2CC[C@H]1C[C@@H](c1ccc3ccccc3c1)C2` [Example 157, endo-(2,3-Dihydro-benzo[1,4]dioxin-6-yl)-(3-naphthalen-2-yl-8-aza-bicyclo[3.2.1]oct-8-yl)-methanone], `O=C(c1ccc2c(c1)OCCO2)N1C2CCC1CC(c1ccccc1)C2` (stereo not drawn) [Example 133, (2,3-Dihydro-benzo[1,4]dioxin-6-yl)-(3-phenyl-8-aza-bicyclo[3.2.1]oct-8-yl)-methanone] is lower in “Inhibitory activity on 11β-HSD 1, % CTL” value: 38 % CTL for the first, −28 % CTL for the second.

First: O=C(c1ccc2c(c1)OCCO2)N1[C@@H]2CC[C@H]1C[C@@H](c1cccnc1)C2 [Example 153, endo-(2,3-Dihydro-benzo[1,4]dioxin-6-yl)-(3-pyridin-3-yl-8-aza-bicyclo[3.2.1]oct-8-yl)-methanone]
Second: COc1ccccc1[C@H]1C[C@H]2CC[C@@H](C1)N2C(=O)c1ccc2c(c1)OCCO2 [Example 156, endo-(2,3-Dihydro-benzo[1,4]dioxin-6-yl)-[3-(2-methoxy-phenyl)-8-aza-bicyclo[3.2.1]oct-8-yl]-methanone]
The “Inhibitory activity on 11β-HSD 1, % CTL” value of the first is higher: −4 % CTL for the first, −13 % CTL for the second.

First: CC(=O)c1ccc(C(=O)N2[C@@H]3CC[C@H]2C[C@@H](c2ccc(F)cc2)C3)cc1 [Example 128, endo-1-{4-[3-(4-Fluoro-phenyl)-8-aza-bicyclo[3.2.1]octane-8-carbonyl]-phenyl}-ethanone]
Second: O=C(c1ccc(-c2cnco2)cc1)N1[C@@H]2CC[C@H]1C[C@@H](c1ccc(F)cc1)C2 [Example 87, endo-[3-(4-Fluoro-phenyl)-8-aza-bicyclo[3.2.1]oct-8-yl]-(4-oxazol-5-yl-phenyl)-methanone]
The “Inhibitory activity on 11β-HSD 1, % CTL” value of the first is higher: 79 % CTL for the first, −2 % CTL for the second.

Compared with `Cn1ccc2ccc(C(=O)N3[C@@H]4CC[C@H]3C[C@@H](c3ccc(F)cc3)C4)cc21` [Example 53, endo-[3-(4-Fluoro-phenyl)-8-aza-bicyclo[3.2.1]oct-8-yl]-(1-methyl-1H-indol-6-yl)-methanone], `Cn1nnc2cc(C(=O)N3[C@@H]4CC[C@H]3C[C@@H](c3ccc(F)cc3)C4)ccc21` [Example 68, endo-[3-(4-Fluoro-phenyl)-8-aza-bicyclo[3.2.1]oct-8-yl]-(1-methyl-1H-benzotriazol-5-yl)-methanone] is higher in “Inhibitory activity on 11β-HSD 1, % CTL” value: −55 % CTL for the first, 66 % CTL for the second.

Compared with `COc1cccc(C(=O)N2[C@@H]3CC[C@H]2C[C@@H](c2ccc(F)cc2)C3)c1OC` [Example 127, endo-(2,3-Dimethoxy-phenyl)-[3-(4-fluoro-phenyl)-8-aza-bicyclo[3.2.1]oct-8-yl]-methanone], `COc1ccc(C(=O)N2[C@@H]3CC[C@H]2C[C@@H](c2ccc(F)cc2)C3)cc1OC` [Example 118, endo-(3,4-Dimethoxy-phenyl)-[3-(4-fluoro-phenyl)-8-aza-bicyclo[3.2.1]oct-8-yl]-methanone] is lower in “Inhibitory activity on 11β-HSD 1, % CTL” value: 85 % CTL for the first, −28 % CTL for the second.

Going from `COc1cc(C(=O)N2[C@@H]3CC[C@H]2C[C@@H](c2ccc(F)cc2)C3)cc(OC)c1OC` [Example 44, endo-[3-(4-Fluoro-phenyl)-8-aza-bicyclo[3.2.1]oct-8-yl]-(3,4,5-trimethoxy-phenyl)-methanone] to `COc1cc(OC)cc(C(=O)N2[C@@H]3CC[C@H]2C[C@@H](c2ccc(F)cc2)C3)c1` [Example 123, endo-(3,5-Dimethoxy-phenyl)-[3-(4-fluoro-phenyl)-8-aza-bicyclo[3.2.1]oct-8-yl]-methanone], the “Inhibitory activity on 11β-HSD 1, % CTL” value falls from 57 % CTL to −17 % CTL.

For `O=C(c1cccc(N2CCCCS2(=O)=O)c1)N1C2CCC1CC(c1ccc(F)cc1)C2` (stereo not drawn) [Example 40, endo-[3-(1,1-Dioxo-1lambda*6*-[1,2]thiazinan-2-yl)-phenyl-[3-(4-fluoro-phenyl)-8-aza-bicyclo[3.2.1]oct-8-yl]-methanone], the “Inhibitory activity on 11β-HSD 1, % CTL” value was 98 % CTL.

Same assay, conditions: 1 μM test compound, 100% indicates no inhibition, zero or below zero indicates complete inhibition (relative to carbenoxolone), 1 µM

In the case of `O=C(c1ccccn1)N1[C@@H]2CC[C@H]1C[C@@H](c1ccc(F)cc1)C2` [Example 98, endo-[3-(4-Fluoro-phenyl)-8-aza-bicyclo[3.2.1]oct-8-yl]-pyridin-2-yl-methanone], the “Inhibitory activity on 11β-HSD 1, % CTL” value is reported as 74 % CTL.
